What was measured:
IRP2−/− mice [1] = assay: Hang-test of IRP2−/− mice on Tempo1-supplemented diet; format: in vivo
Excerpt: Mice: IRP2−/− mice were generated, propagated by breeding and genotyped as described in LaVaute et al., Nature Genetics, 27, 209-214 (2001). Mice used in this study have a 129S4/SvJae X C57B1/6 mixed background (specific proportions of each strain are not known). In experiments with mice of same genotype but on different diets siblings were used to minimize phenotypic variation due to differences in genetic background. Mice of different genotypes and on different diets were age and sex matched. All protocols were approved by the National Institute of Child Health and Human Development Animal Care and Use Committee, and met US National Institutes of Health guidelines for the humane care of animals. […]
(§1) Hang-test: In the hang-test, mice were allowed to grip a wire mesh that was then inverted. The length of time that a mouse could hang on to an inverted wire mesh before falling (up to a maximum of 60 seconds) was measured and recorded.
A stable nitroxide radical, Tempo1, was administered as a dietary supplement to knockout mice (IRP2−/−), and neurodegeneration was tested using the “hang test,” by which mice were allowed to grasp a wire mesh screen in an inverted position and the length of time that the mice could remain grasping the screen was measured (up to a maximum of 60 seconds). The hang test quantitatively assesses the progression of neurodegeneration in mice. […]

IRP1 = assay: Western blot of IRP1 protein in IRP2−/− embryonic fibroblasts; format: cell-based, mouse; details: 0.3 and 1.0 mM, 16 h
Description: Cells: Embryonic fibroblasts of 13-day old embryos were isolated from wild type, IRP1−/− mice and IRP2−/− mice as described in LaVaute et al. supra. Myc-tagged HEK 293 Tet-on cell line, in which IRP2 expression was inducible, was prepared and cultured as described Bourdon et al., Blood Cells Mol Dis, 31, 247-255 (2003). Erythroblasts were harvested from bone marrow and purified as described in Cooperman et al., Blood, 106, 1084-1091 (2005).
Western blotting and antibodies: Protein analysis was carried out as described in LaVaute et al., supra. Equal amounts of protein (20-40 μg/lane) were separated on 13% SDSPAGE and transferred to nitrocellulose membranes. The membrane was blocked with 5% non-fat milk, 0.1% Triton X-100 in PBS and probed at RT in the same blocking buffer. IRP1 antibody was prepared against purified hIRP1 and used at 1:5000 dilution. L-ferritin antibody was raised in rabbit from L-ferritin protein purified from mouse livers. […]
To study the effect of Tempo1 on the IRE-binding activity of IRP1, IRP2−/− embryonic fibroblasts that were maintained in culture supplemented with 0, 0.3 and 1.0 mM Tempo1, with or without ferric ammonium citrate (FAC), for 16 h. […] Quantification was performed with the IQMac (IRP1 activity) or NIH Image (protein levels) program. Error bars represent the standard deviation calculated from the results of two different sets of experiments.

IRP2−/− mice [2] = assay: Observation of other signs of neurodegeneration in IRP2−/− mice; format: in vivo; details: IRP2−/− mice supplemented with Tempo1
Excerpt: Background on Experimental Model: In the following examples, IRP2−/− mice are used to model neurodegerative disease. The neurodegeneration of IRP2−/− animals is characterized by progressive loss of motor capabilities, for example as measured in mice by performance on hang-tests, rotarod rotating drum treadmill testing, balance beams, climbing pole tests, allelerods, footprints, decreased grooming activities and gait abnormalities in adult animals. The neurodegeneration of IRP2−/− animals progresses slowly as animals age.
(§2) Diet: The mice were weaned 3-4 weeks after their birth. Immediately after weaning, mice were maintained on either a Tempo1-supplemented or control diet. In the Tempo1-supplemented diet, powdered Tempo1 was uniformly mixed with bacon-flavored mouse chow by a “cold press” technique (Bio-Serv, Frenchtown, N.J., USA) at a concentration of 10 mg/g of food. Bacon-flavored chow without Tempo1 was used as the control diet.

IRP1+/− IRP2−/− mice = assay: Hang-test of IRP1+/− IRP2−/− mice on Tempo1-supplemented diet; format: in vivo; details: FIG. 7c
Description: as §2, §1
Hang-test results of WT, IRP2−/− and IRP1+/− IRP2−/− mice that indicated IRP1+/− IRP2−/− animals were more symptomatic than IRP2−/− animals. […] Error bars represent standard error of the mean. The curves were drawn by using the polynomial curve fit of the KaleidaGraph program.

## CC1(C)CC(O)CC(C)(C)N1[O] [Tempo1]
IRP2−/− mice [1]; IRP2−/− mice on Tempo1 supplemented diet (10 mg/g of food) vs untreated knockout mice, max 60 seconds
  hang times: substantially increased
IRP2−/− mice [1]; IRP2−/− mice on Tempo1 supplemented diet, hang test, FIG. 1c
  protection from progressive loss of neuromuscular capability: significantly (p value=0.009) protected
IRP1
  IRP1 levels: unchanged
IRP2−/− mice [2]
  other signs of neurodegeneration (movement disorders, tremor, abnormalities of gait and grooming): did not develop
IRP1+/− IRP2−/− mice
  prevention of disease progression (hang-test): did not significantly (p=0.559) prevent

Source: US20100179188A1, “NITROXIDE RADICAL AS TREATMENT FOR NEURODEGENERATION” (Office of Technology Transfer, NIH, priority 2007, published 2010)
